Experimental data from PMC7827406, “Structure–Activity Relationship (SAR) Study of Spautin-1 to Entail the Discovery of Novel NEK4 Inhibitors” (International Journal of Molecular Sciences, 2021).
Read-outs that look alike come from different tables or passages of the source.

Legend:
Test in all cases: biochemical
Parameters in all cases: Eurofins KinaseProfiler full panel at Km ATP, residual kinase activity (%) relative to DMSO
CK2α1(h) = target: T1, CK2α1(h) (Homo sapiens, UniProt P68400)
T1 construct: gene CSNK2A1
How it was run: (§1)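 Compounds screened at 10 µM in radiometric kinase activity assays at Km ATP, reported as remaining kinase activity (%). A KINOMEscan competition-binding screen at 10 µM measured DNA-tagged kinase retained on immobilized active-site ligand by qPCR.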

JAK3(h) = target: T2, JAK3(h) (Homo sapiens, UniProt P52333)
T2 sequence (P52333 1-1124): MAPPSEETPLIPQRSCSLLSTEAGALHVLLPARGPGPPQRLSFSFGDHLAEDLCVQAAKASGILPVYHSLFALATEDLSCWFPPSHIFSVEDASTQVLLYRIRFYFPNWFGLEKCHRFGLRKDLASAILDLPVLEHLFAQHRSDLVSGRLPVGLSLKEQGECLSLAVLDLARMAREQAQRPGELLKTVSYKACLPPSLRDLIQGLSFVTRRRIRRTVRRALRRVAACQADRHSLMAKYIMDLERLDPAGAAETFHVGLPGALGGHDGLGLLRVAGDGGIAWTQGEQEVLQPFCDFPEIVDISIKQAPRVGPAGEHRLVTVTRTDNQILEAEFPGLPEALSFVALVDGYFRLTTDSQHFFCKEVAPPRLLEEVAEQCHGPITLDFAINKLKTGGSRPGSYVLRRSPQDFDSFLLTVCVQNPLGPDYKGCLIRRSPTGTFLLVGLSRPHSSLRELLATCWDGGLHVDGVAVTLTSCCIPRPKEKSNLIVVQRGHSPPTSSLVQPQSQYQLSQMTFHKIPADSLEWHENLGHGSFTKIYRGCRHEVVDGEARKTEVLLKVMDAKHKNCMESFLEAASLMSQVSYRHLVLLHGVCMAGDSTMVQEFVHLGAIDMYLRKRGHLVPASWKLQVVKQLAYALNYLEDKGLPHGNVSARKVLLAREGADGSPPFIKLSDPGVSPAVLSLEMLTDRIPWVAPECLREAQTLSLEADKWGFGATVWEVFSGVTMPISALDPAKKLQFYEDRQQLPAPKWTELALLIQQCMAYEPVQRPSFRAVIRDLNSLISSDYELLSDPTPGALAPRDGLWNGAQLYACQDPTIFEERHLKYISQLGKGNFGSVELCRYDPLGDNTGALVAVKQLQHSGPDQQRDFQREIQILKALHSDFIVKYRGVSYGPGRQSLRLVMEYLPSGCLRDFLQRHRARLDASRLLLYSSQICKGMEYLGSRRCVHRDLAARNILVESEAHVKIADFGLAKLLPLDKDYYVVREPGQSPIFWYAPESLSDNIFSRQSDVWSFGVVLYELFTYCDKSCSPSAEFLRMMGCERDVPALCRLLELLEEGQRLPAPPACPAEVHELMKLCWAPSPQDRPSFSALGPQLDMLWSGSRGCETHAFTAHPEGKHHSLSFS
How it was run: as §1

LIMK1(h) = LIMK1(h) (Homo sapiens, UniProt P53667)
How it was run: as §1

PRKG2(h) = target: T3, PRKG2(h) (Homo sapiens, UniProt Q13237)
T3 sequence (Q13237 1-762): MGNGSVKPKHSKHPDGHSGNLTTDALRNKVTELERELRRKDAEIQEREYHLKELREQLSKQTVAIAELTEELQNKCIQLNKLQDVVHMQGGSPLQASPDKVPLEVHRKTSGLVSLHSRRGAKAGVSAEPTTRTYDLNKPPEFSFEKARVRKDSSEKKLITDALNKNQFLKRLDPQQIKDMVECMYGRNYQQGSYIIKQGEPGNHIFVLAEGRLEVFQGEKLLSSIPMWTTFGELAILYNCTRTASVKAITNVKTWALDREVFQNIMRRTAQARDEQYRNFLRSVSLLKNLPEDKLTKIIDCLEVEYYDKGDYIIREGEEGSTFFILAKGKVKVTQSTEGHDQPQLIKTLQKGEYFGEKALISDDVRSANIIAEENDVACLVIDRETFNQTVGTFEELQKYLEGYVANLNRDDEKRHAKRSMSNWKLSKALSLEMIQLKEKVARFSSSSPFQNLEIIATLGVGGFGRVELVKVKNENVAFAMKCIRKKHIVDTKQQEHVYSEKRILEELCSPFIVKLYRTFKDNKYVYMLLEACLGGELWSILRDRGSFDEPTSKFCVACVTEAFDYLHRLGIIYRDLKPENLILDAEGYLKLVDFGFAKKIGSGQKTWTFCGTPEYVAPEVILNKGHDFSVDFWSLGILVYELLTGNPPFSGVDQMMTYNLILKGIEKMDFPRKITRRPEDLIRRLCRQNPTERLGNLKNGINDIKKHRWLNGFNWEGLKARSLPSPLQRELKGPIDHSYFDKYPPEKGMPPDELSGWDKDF
How it was run: as §1

[1] = read-out: Residual activity (%) 5at
[2] = read-out: Residual activity (%) 5as
[3] = read-out: Residual activity (%) 5ay
[4] = read-out: Residual activity (%) Spautin-1 5aa

Chain of LIMK1(h) (P53667 whole entry): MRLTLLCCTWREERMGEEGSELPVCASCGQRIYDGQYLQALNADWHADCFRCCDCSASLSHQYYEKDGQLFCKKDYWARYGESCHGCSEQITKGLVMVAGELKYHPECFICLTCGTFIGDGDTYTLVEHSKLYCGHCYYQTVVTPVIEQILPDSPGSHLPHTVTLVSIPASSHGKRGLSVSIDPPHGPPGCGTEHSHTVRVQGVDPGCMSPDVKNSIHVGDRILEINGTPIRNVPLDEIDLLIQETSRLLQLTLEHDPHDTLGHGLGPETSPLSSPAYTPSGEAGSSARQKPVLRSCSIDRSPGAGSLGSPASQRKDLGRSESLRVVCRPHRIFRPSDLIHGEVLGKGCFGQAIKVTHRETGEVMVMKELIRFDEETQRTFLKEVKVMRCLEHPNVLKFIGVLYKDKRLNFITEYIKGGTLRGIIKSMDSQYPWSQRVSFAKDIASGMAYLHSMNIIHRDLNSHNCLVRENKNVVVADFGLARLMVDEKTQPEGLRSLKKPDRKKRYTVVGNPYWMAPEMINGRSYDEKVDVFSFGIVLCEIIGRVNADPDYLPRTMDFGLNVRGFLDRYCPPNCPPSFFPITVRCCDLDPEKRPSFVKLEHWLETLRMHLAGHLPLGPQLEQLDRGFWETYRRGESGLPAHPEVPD
T1 sequence (P68400 whole entry): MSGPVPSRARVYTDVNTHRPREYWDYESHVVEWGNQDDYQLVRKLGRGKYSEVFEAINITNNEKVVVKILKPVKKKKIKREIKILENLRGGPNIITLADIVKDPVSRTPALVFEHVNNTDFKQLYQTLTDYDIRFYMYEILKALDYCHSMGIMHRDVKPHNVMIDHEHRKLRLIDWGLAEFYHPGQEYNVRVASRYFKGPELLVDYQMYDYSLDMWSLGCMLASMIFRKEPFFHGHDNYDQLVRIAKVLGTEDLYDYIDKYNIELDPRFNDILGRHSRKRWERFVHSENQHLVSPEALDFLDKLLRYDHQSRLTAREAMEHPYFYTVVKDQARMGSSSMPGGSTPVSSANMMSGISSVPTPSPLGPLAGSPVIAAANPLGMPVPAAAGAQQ

Q: Which remaining activity at 10 µM (CK2α1(h); [1]) does the source give for `Fc1ccc2ncnc(NCCc3ccc(Cl)cc3)c2c1` [5at, N-[2-(4-Chlorophenyl)Ethyl]-6-Fluoro-4-Quinazolinamine] here?
A: Its remaining activity at 10 µM is 78%.

Q: What about the remaining activity at 10 µM (JAK3(h); [1]) of the same compound?
A: Its remaining activity at 10 µM is 92%.

Q: And the remaining activity at 10 µM (LIMK1(h); [1])?
A: Its remaining activity at 10 µM is 72%.

Q: What about the remaining activity at 10 µM (PRKG2(h); [1]) of the same compound?
A: The remaining activity at 10 µM was 79%.

Q: What does the source list for `Fc1ccc(CCNc2ncnc3ccc(F)cc23)cc1` [5as, 6-Fluoro-N-[2-(4-Fluorophenyl)Ethyl]-4-Quinazolinamine]?
A: remaining activity at 10 µM (CK2α1(h); [2]): 84%; remaining activity at 10 µM (JAK3(h); [2]): 94%; remaining activity at 10 µM (LIMK1(h); [2]): 76%; remaining activity at 10 µM (PRKG2(h); [2]): 96%

Q: With `COc1ccc2ncnc(Nc3cccc(F)c3)c2c1` [5ay, N-(3-Fluorophenyl)-6-Methoxy-4-Quinazolinamine] as the compound, how does the remaining activity at 10 µM (JAK3(h); [3]) read?
A: Its remaining activity at 10 µM is 91%.

Q: And the remaining activity at 10 µM (LIMK1(h); [3])?
A: The remaining activity at 10 µM was 64%.

Q: What about the remaining activity at 10 µM (PRKG2(h); [3]) of the same compound?
A: Its remaining activity at 10 µM is 113%.

Q: What does the source list for `Fc1ccc(CNc2ncnc3ccc(F)cc23)cc1` [5aa, 6-Fluoro-N-(4-fluorobenzyl)-4-Quinazolinamine]?
A: remaining activity at 10 µM (CK2α1(h); [4]): 105%; remaining activity at 10 µM (JAK3(h); [4]): 94%; remaining activity at 10 µM (LIMK1(h); [4]): 97%; remaining activity at 10 µM (PRKG2(h); [4]): 103%
